Laboratory results published in the kinase profiling compilation of Christmann-Franck et al. (2016).

How the values were obtained:
Test in all cases: radiometric filter-binding kinase assay, Kinase HotSpot
Settings in all cases: compound 0.5 µM; ATP 10 µM
ABL2 (human) = ABL2 (human) (UniProt P42684)
AURKC (human) = AURKC (human) (UniProt Q9UQB9)
BRSK1 (human) = BRSK1 (human) (UniProt Q8TDC3)
CAMKK2 (human) = CAMKK2 (human) (UniProt Q96RR4)
CDK5 CDK5R1 p25 (human) = CDK5 CDK5R1 p25 (human) (UniProt Q00535+Q15078)
Sequence of CDK5 CDK5R1 p25 (human) (Q00535 whole entry, looked up): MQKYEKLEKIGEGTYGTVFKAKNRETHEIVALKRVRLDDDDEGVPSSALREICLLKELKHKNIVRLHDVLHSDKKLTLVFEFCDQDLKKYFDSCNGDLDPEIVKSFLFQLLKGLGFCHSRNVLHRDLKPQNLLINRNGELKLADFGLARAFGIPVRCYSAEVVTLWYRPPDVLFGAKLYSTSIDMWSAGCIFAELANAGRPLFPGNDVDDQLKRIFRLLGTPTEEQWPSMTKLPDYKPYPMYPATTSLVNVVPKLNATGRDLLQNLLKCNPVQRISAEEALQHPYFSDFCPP
Sequence of CDK5 CDK5R1 p25 (human) (Q15078 whole entry, looked up): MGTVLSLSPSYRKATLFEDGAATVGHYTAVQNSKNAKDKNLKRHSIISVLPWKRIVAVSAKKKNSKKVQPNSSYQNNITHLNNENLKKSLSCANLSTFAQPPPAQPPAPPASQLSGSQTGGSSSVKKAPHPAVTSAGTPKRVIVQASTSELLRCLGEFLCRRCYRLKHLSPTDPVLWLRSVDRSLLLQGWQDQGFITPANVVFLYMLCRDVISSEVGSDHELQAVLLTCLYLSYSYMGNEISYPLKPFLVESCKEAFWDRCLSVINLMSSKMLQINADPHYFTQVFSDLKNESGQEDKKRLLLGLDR

CDK9 CCNK (human) = CDK9 CCNK (human) (UniProt O75909+P50750)
CLK3 (human) = CLK3 (human) (UniProt P49761)
CSK (human) = CSK (human) (UniProt P41240)
Sequence of CSK (human) (P41240 whole entry, looked up): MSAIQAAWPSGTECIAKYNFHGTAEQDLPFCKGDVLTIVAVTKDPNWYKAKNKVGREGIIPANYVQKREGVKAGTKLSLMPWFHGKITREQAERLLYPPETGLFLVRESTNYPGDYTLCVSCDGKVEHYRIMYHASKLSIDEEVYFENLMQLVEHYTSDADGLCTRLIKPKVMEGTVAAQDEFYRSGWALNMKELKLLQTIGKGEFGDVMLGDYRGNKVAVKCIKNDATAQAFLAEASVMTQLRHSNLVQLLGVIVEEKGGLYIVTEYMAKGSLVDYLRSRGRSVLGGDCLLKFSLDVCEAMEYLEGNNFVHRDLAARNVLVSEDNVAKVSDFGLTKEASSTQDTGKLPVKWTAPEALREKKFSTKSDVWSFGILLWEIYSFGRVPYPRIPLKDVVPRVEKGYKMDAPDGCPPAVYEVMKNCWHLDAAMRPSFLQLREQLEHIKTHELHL

CSNK1D (human) = CSNK1D (human) (UniProt P48730)
Sequence of CSNK1D (human) (P48730 whole entry, looked up): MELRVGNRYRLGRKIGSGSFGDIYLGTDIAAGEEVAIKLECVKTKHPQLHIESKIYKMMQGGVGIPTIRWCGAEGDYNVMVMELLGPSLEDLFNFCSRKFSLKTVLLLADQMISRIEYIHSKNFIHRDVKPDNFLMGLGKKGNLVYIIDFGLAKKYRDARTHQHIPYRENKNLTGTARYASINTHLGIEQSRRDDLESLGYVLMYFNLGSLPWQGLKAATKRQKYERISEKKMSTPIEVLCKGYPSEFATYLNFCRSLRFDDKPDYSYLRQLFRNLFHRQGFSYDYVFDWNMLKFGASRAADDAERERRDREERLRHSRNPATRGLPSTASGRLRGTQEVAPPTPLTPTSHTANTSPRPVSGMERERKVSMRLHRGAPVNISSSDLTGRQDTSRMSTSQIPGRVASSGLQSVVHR

DMPK (human) = DMPK (human) (UniProt Q09013)
DYRK1A (human) = DYRK1A (human) (UniProt Q13627)
EPHA4 (human) = EPHA4 (human) (UniProt P54764)
Sequence of EPHA4 (human) (P54764 whole entry, looked up): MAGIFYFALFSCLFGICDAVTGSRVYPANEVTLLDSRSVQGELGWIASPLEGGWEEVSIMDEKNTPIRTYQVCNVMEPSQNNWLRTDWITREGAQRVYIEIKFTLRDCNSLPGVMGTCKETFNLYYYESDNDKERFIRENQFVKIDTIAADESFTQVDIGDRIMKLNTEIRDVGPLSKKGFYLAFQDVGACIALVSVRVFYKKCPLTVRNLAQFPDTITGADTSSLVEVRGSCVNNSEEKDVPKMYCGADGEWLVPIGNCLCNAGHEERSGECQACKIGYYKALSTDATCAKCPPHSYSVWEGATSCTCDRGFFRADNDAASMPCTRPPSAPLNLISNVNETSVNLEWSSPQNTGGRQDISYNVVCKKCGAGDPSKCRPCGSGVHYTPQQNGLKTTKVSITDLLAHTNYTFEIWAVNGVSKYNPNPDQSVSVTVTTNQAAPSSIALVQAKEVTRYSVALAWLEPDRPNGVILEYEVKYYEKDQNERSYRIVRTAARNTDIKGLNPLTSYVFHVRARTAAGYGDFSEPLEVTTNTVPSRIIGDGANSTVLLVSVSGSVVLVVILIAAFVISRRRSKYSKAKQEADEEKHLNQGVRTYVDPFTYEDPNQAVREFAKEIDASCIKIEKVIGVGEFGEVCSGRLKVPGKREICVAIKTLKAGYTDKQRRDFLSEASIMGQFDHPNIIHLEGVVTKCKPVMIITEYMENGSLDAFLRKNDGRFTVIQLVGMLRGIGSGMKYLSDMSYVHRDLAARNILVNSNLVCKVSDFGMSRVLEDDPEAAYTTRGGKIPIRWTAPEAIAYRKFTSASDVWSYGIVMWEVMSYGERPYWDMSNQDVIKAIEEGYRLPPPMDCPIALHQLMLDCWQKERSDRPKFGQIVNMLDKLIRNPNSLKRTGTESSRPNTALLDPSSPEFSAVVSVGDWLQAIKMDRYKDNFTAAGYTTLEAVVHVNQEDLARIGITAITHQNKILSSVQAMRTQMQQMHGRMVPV

EPHA8 (human) = EPHA8 (human) (UniProt P29322)
EPHB3 (human) = EPHB3 (human) (UniProt P54753)
ERBB4 (human) = ERBB4 (human) (UniProt Q15303)
FGFR4 (human) = FGFR4 (human) (UniProt P22455)
GSK3B (human) = GSK3B (human) (UniProt P49841)
HIPK1 (human) = HIPK1 (human) (UniProt Q86Z02)
IGF1R (human) = IGF1R (human) (UniProt P08069)
IKBKE (human) = IKBKE (human) (UniProt Q14164)
IRAK1 (human) = IRAK1 (human) (UniProt P51617)
Sequence of IRAK1 (human) (P51617 whole entry, looked up): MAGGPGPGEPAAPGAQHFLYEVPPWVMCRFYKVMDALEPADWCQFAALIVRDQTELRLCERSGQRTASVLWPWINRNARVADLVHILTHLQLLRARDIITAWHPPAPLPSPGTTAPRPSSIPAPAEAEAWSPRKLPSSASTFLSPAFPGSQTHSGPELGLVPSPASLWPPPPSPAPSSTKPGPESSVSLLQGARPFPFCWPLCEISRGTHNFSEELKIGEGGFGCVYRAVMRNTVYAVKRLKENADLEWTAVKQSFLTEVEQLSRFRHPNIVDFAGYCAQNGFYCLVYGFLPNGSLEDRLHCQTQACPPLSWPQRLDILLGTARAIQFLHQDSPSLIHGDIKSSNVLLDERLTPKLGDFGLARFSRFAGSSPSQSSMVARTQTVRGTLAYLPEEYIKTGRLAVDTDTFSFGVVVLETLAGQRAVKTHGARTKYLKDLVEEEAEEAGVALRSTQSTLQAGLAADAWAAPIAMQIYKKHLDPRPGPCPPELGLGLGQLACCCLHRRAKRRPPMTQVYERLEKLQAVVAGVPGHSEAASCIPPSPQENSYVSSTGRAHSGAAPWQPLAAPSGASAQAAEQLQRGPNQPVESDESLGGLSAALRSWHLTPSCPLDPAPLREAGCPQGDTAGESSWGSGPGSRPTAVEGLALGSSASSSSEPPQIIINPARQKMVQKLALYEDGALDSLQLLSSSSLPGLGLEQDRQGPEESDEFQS

MAP2K1 (human) = MAP2K1 (human) (UniProt Q02750)
MAP2K2 (human) = MAP2K2 (human) (UniProt P36507)
Sequence of MAP2K2 (human) (P36507 whole entry, looked up): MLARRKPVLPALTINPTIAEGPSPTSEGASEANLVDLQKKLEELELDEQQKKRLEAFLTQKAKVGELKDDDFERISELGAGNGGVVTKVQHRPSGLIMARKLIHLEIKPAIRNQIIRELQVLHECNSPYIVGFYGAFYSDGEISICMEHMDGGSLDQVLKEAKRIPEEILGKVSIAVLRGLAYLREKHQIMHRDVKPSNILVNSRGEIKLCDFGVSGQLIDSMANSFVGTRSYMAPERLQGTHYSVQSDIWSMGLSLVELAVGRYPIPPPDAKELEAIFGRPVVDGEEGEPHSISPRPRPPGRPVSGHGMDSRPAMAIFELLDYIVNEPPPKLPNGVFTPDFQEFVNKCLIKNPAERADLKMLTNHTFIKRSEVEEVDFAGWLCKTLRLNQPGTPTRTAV

MAPK13 (human) = MAPK13 (human) (UniProt O15264)
MAPK14 (human) = MAPK14 (human) (UniProt Q16539)
MAPKAPK2 (human) = MAPKAPK2 (human) (UniProt P49137)
MARK3 (human) = MARK3 (human) (UniProt P27448)
MARK4 (human) = MARK4 (human) (UniProt Q96L34)
MATK (human) = MATK (human) (UniProt P42679)
MERTK (human) = MERTK (human) (UniProt Q12866)
MYLK2 (human) = MYLK2 (human) (UniProt Q9H1R3)
NEK2 (human) = NEK2 (human) (UniProt P51955)
PASK (human) = PASK (human) (UniProt Q96RG2)
PDPK1 (human) = PDPK1 (human) (UniProt O15530)
Sequence of PDPK1 (human) (O15530 whole entry, looked up): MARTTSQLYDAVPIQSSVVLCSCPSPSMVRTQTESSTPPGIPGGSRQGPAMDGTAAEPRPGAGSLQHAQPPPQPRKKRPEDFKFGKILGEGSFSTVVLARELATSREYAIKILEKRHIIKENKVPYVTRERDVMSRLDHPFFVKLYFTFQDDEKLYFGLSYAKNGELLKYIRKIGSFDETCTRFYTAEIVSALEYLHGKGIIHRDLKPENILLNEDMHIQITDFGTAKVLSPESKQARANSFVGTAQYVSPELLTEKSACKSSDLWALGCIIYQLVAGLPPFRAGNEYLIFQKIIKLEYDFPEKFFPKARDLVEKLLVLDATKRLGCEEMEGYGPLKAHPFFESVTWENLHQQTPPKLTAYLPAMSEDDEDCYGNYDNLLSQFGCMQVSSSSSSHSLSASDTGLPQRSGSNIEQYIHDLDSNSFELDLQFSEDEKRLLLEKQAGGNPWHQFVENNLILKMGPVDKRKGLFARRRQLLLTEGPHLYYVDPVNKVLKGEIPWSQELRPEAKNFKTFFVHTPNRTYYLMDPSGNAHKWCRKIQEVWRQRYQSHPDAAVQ

PKN1 (human) = PKN1 (human) (UniProt Q16512)
PRKCG (human) = PRKCG (human) (UniProt P05129)
PRKCI (human) = PRKCI (human) (UniProt P41743)
SGK3 (human) = SGK3 (human) (UniProt Q96BR1)
STK17A (human) = STK17A (human) (UniProt Q9UEE5)
WNK2 (human) = WNK2 (human) (UniProt Q9Y3S1)
WNK3 (human) = WNK3 (human) (UniProt Q9BYP7)
BMX (human) = BMX (human) (UniProt P51813)

Sequence of CAMKK2 (human) (Q96RR4 whole entry, looked up): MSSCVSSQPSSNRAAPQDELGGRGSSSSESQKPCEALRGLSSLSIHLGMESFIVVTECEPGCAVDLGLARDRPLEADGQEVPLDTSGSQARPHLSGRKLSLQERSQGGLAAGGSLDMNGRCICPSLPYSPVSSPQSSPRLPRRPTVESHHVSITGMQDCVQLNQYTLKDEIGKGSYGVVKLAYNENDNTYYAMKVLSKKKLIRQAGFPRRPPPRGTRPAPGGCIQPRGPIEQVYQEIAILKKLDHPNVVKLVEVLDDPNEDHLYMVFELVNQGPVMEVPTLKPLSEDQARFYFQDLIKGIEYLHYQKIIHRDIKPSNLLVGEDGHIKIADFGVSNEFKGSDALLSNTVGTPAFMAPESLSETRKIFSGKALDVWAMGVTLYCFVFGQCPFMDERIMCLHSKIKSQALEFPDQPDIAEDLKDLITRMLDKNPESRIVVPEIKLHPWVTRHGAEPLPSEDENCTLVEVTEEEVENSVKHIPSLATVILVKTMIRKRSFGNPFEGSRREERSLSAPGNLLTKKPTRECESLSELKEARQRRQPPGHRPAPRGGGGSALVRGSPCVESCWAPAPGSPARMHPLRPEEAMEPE

Nc1nc(Nc2ccc(S(N)(=O)=O)cc2)nn1C(=O)c1c(F)cccc1F was tested, and the residual activity (ABL2 (human)) was 53.9%, the residual activity (AURKC (human)) was 28.3% and the residual activity (BRSK1 (human)) was 49.2%. For the same compound, the residual activity (CAMKK2 (human)) was 61.5%, the residual activity (CDK5 CDK5R1 p25 (human)) was 2.54% and the residual activity (CDK9 CCNK (human)) was 27.4%. For the same compound, the residual activity (CLK3 (human)) was 65.8%, the residual activity (CSK (human)) was 88.9% and the residual activity (CSNK1D (human)) was 94.5%. It also gave a residual activity (DMPK (human)) of 93.2%, a residual activity (DYRK1A (human)) of 101% and a residual activity (EPHA4 (human)) of 91.3%. The residual activity (EPHA8 (human)) was 109%, the residual activity (EPHB3 (human)) was 98.5% and the residual activity (ERBB4 (human)) was 110%. The residual activity (FGFR4 (human)) was 90.3%, the residual activity (GSK3B (human)) was 22% and the residual activity (HIPK1 (human)) was 106%. It also gave a residual activity (IGF1R (human)) of 86.9%, a residual activity (IKBKE (human)) of 95.9% and a residual activity (IRAK1 (human)) of 89.8%. For the same compound, the residual activity (MAP2K1 (human)) was 93.9%, the residual activity (MAP2K2 (human)) was 85.6% and the residual activity (MAPK13 (human)) was 94.8%. It also gave a residual activity (MAPK14 (human)) of 97.8%, a residual activity (MAPKAPK2 (human)) of 95.8% and a residual activity (MARK3 (human)) of 67.6%. The residual activity (MARK4 (human)) was 48%, the residual activity (MATK (human)) was 104% and the residual activity (MERTK (human)) was 70.2%. For the same compound, the residual activity (MYLK2 (human)) was 96.1%, the residual activity (NEK2 (human)) was 94.8% and the residual activity (PASK (human)) was 91.1%. It also gave a residual activity (PDPK1 (human)) of 92.3%, a residual activity (PKN1 (human)) of 89.7% and a residual activity (PRKCG (human)) of 81.3%. For the same compound, the residual activity (PRKCI (human)) was 87.6%, the residual activity (SGK3 (human)) was 114% and the residual activity (STK17A (human)) was 83.9%. For the same compound, the residual activity (WNK2 (human)) was 116% and the residual activity (WNK3 (human)) was 98.3%.
Work on O=C(Nc1ccc(Cl)cc1)c1ccccc1NCc1ccncc1 yielded a residual activity (ABL2 (human)) of 93.4%, a residual activity (AURKC (human)) of 93.4% and a residual activity (BMX (human)) of 90.5%. It also gave a residual activity (BRSK1 (human)) of 94%, a residual activity (CAMKK2 (human)) of 93.9% and a residual activity (CDK5 CDK5R1 p25 (human)) of 84.9%. For the same compound, the residual activity (CDK9 CCNK (human)) was 95.5%, the residual activity (CLK3 (human)) was 98.1% and the residual activity (CSK (human)) was 101%. It also gave a residual activity (CSNK1D (human)) of 98.1%, a residual activity (DMPK (human)) of 103% and a residual activity (DYRK1A (human)) of 97.1%. The residual activity (EPHA4 (human)) was 96.5%, the residual activity (EPHA8 (human)) was 87.6% and the residual activity (EPHB3 (human)) was 96.9%. It also gave a residual activity (ERBB4 (human)) of 71.3%, a residual activity (FGFR4 (human)) of 84.1% and a residual activity (GSK3B (human)) of 89.3%. For the same compound, the residual activity (HIPK1 (human)) was 92.7%, the residual activity (IKBKE (human)) was 98.9% and the residual activity (IRAK1 (human)) was 117%. For the same compound, the residual activity (MAP2K1 (human)) was 96.8%, the residual activity (MAP2K2 (human)) was 102% and the residual activity (MAPK13 (human)) was 95.6%. The residual activity (MAPK14 (human)) was 128%, the residual activity (MAPKAPK2 (human)) was 97.6% and the residual activity (MARK3 (human)) was 93.1%. It also gave a residual activity (MARK4 (human)) of 107%, a residual activity (MATK (human)) of 99.3% and a residual activity (MERTK (human)) of 79%. For the same compound, the residual activity (MYLK2 (human)) was 99.5%, the residual activity (NEK2 (human)) was 88.4% and the residual activity (PASK (human)) was 97.1%. The residual activity (PDPK1 (human)) was 95.3%, the residual activity (PKN1 (human)) was 95.2% and the residual activity (PRKCG (human)) was 102%. The residual activity (PRKCI (human)) was 98.7%, the residual activity (SGK3 (human)) was 92.5% and the residual activity (STK17A (human)) was 94.7%. The residual activity (WNK2 (human)) was 101% and the residual activity (WNK3 (human)) was 92.9%.
